Measurements: patent publication US12414961B2, “Substituted nucleosides and nucleotides for treating viral infections” (priority 2013, dated 2025)

Legend:
HepG2 = assay: Cytotoxicity (CC50) HepG2; settings: read-out: Cytotoxicity (CC50 uM) HepG2; HepG2
CEM = assay: Cytotoxicity (CC50) CEM; settings: read-out: Cytotoxicity (CC50 uM) CEM; CEM
Huh-7 = assay: Cytotoxicity (CC50) Huh-7; settings: read-out: Cytotoxicity (CC50 uM) Huh-7; Huh-7
BxPC3 = assay: Cytotoxicity (CC50) BxPC3; settings: read-out: Cytotoxicity (CC50 uM) BxPC3; BxPC3
A204 = assay: Cytotoxicity (CC50) A204; format: cell-based; settings: A204
Huh-7 cells = assay: Cytotoxicity in Huh-7 cells of the HCV replicon assay; settings: read-out: Huh-7 cells (CC50 uM)
[1] = Cytotoxicity in Huh-7 cells (Dengue assay); settings: human, Huh-7 cells
[2] = Cytotoxicity (CC50) HepG2; settings: human, HepG2 cells
Cytotoxicity (CC50) CEM = settings: human, CEM cells
[3] = Cytotoxicity (CC50) Huh-7; settings: human, Huh-7 cells
Dengue Type 2 [4] = assay: Anti-Dengue virus cytoprotection assay, Huh-7 cells; settings: Huh-7, read-out: Dengue Type 2 Huh-7 Cells (EC50 uM)
[5] = Cytotoxicity in Vero cells (Dengue assay); settings: African green monkey
Dengue Type 2 [6] = assay: Anti-Dengue virus cytoprotection assay, Vero cells; settings: read-out: Dengue Type 2 Vero Cells (EC50 uM)
[7] = tested on: Influenza A H5N1 (low path); assay: microbe, parasite or virus in culture; format: cell-based; settings: H5N1, read-out: Influenza A H5N1 (low path) EC50
SARS = assay: microbe, parasite or virus in culture; format: cell-based; settings: Severe acute respiratory syndrome coronavirus, read-out: SARS EC50
Measles = Measles antiviral assay; format: cell-based, Measles virus; settings: Measles morbillivirus
CHIK Virus = CHIK Virus screening assay; format: cell-based, CHIKV; settings: Chikungunya virus, read-out: CHIK Virus EC50
VEEV = assay: microbe, parasite or virus in culture; format: cell-based; settings: Venezuelan equine encephalitis virus, read-out: VEEV EC50
Dengue Virus = Dengue Virus screening assay; format: cell-based, DENV
Influenza B = Influenza B antiviral assay; format: cell-based; settings: Influenza B virus
Influenza A H1N1 = Influenza A H1N1 antiviral assay; format: cell-based; settings: Influenza A virus, H1N1, read-out: Influenza A H1N1 EC50
Tacaribe Virus = assay: microbe, parasite or virus in culture; format: cell-based, TCRV; settings: Mammarenavirus tacaribeense, read-out: Tacaribe Virus EC50
RSV = RSV antiviral assay; format: cell-based; settings: human respiratory syncytial virus
RVFV = assay: microbe, parasite or virus in culture; format: cell-based; settings: Rift Valley fever virus, read-out: RVFV EC50
West Nile Virus = West Nile Virus screening assay; format: cell-based, WNV; settings: read-out: West Nile Virus EC50
Influenza A H3N2 = Influenza A H3N2 antiviral assay; format: cell-based; settings: Influenza A virus, H3N2, read-out: Influenza A H3N2 EC50
GT1b replicon cells = assay: Cytotoxicity in GT1b replicon cells; format: cell-based

## C[C@@]1(O)C(O)[C@@H](CO)O[C@H]1n1ccc(=S)[nH]c1=O (stereo partly shown)
HepG2
  CC50: > 400 µM
CEM
  CC50: > 400 µM
Huh-7
  CC50: > 100 µM
BxPC3
  CC50: > 100 µM

## C[C@@]1(F)C(O)[C@@H](CO)O[C@H]1n1ccc(=S)[nH]c1=O (stereo partly shown)
HepG2
  CC50: > 400 µM
CEM
  CC50: > 400 µM
Huh-7
  CC50: > 400 µM

## C[C@@]1(O)C(O)[C@@H](CO)O[C@H]1n1ccc(=O)[nH]c1=S (stereo partly shown)
HepG2
  CC50: > 400 µM
CEM
  CC50: > 200 µM
Huh-7
  CC50: > 100 µM
BxPC3
  CC50: > 100 µM

## CC(C)OC(=O)[C@H](C)NP(=O)(OC[C@H]1O[C@@H](n2ccc(=O)[nH]c2=[Se])[C@](C)(O)C1O)Oc1ccccc1 (stereo partly shown)
HepG2
  CC50: > 400 µM
Huh-7
  CC50: > 100 µM
BxPC3
  CC50: > 400 µM
A204
  CC50: > 400 µM

## CC(C)OC(=O)[C@H](C)N[P@@](=O)(OC[C@H]1O[C@@H](n2ccc(=O)[nH]c2=S)[C@](C)(O)C1O)Oc1ccccc1 (stereo partly shown)
HepG2
  CC50: > 400 µM
CEM
  CC50: > 400 µM
Huh-7
  CC50: > 400 µM

## CC(C)OC(=O)[C@H](C)N[P@@](=O)(OC[C@H]1O[C@@H](n2ccc(=O)[nH]c2=O)[C@](C)(F)C1O)Oc1ccccc1 (stereo partly shown)
HepG2
  CC50: > 400 µM
CEM
  CC50: > 400 µM
Huh-7
  CC50: > 400 µM

## CC(C)OC(=O)[C@H](C)NP(=O)(OC[C@H]1O[C@@H](n2ccc(=S)[nH]c2=O)[C@@H](O)C1O)Oc1ccccc1 (stereo partly shown)
HepG2
  CC50: > 400 µM

## C[C@H](NP(=O)(O)OC[C@H]1O[C@@H](n2ccc(=O)[nH]c2=S)[C@](C)(O)C1O)C(=O)O (stereo partly shown)
HepG2
  CC50: > 400 µM
CEM
  CC50: > 400 µM
Huh-7
  CC50: > 400 µM
Huh-7 cells
  CC50: > 100 µM

## C[C@@]1(O)C(O)[C@@H](COP(=O)(O)O)O[C@H]1n1ccc(=O)[nH]c1=S (stereo partly shown)
HepG2
  CC50: > 400 µM
CEM
  CC50: > 400 µM
Huh-7
  CC50: > 400 µM
Huh-7 cells
  CC50: > 100 µM

## CC(C)OC(=O)[C@H](C)NP(=O)(OC[C@@]1(N=[N+]=[N-])O[C@@H](n2ccc(=S)[nH]c2=O)[C@@H](O)C1O)Oc1ccccc1 (stereo partly shown)
HepG2
  CC50: > 400 µM
CEM
  CC50: 229 µM
Huh-7
  CC50: > 400 µM
Huh-7 cells
  CC50: > 100 µM

## CC(C)OC(=O)[C@H](C)N[P@@](=O)(OC[C@H]1O[C@@H](n2ccc(=O)[nH]c2=S)C(C)(O)[C@H]1O)Oc1ccccc1 (stereo partly shown)
[1]
  CC50: > 100 µM
[2]
  CC50: > 400 µM
Cytotoxicity (CC50) CEM
  CC50: > 400 µM
[3]
  CC50: > 400 µM
Dengue Type 2 [4]
  EC50: 24.9 µM
[5]
  CC50: > 100 µM
Dengue Type 2 [6]
  EC50: 56.2 µM

## C#C[C@]1(COP(=O)(N[C@@H](C)C(=O)OC(C)C)Oc2ccccc2)O[C@@H](n2ccc(=O)[nH]c2=S)C(O)[C@H]1O (stereo partly shown)
[1]
  CC50: > 100 µM
[2]
  CC50: > 400 µM
Cytotoxicity (CC50) CEM
  CC50: > 400 µM
[3]
  CC50: > 400 µM
Dengue Type 2 [4]
  EC50: > 100 µM

## CC(C)OC(=O)[C@H](C)NP(=O)(OC[C@H]1O[C@@H](n2ccc(=O)[nH]c2=S)C(C)[C@H]1O)Oc1ccccc1 (stereo partly shown)
[1]
  CC50: > 100 µM
[2]
  CC50: > 400 µM
Cytotoxicity (CC50) CEM
  CC50: 259 µM
[3]
  CC50: > 400 µM
Dengue Type 2 [4]
  EC50: 6.07 µM

## CC(C)OC(=O)[C@H](C)NP(=O)(OC[C@@]1(N=[N+]=[N-])O[C@@H](n2ccc(=S)[nH]c2=O)C(O)[C@H]1O)Oc1ccccc1 (stereo partly shown)
[1]
  CC50: > 100 µM
[2]
  CC50: > 400 µM
Cytotoxicity (CC50) CEM
  CC50: 229 µM
[3]
  CC50: > 400 µM
Dengue Type 2 [4]
  EC50: 4.82 µM

## CNc1ccn([C@@H]2O[C@H](CO)[C@H](O)C2F)c(=O)n1 (stereo partly shown) [EFVX-01853]
[7]
  EC50: > 100 µM
SARS
  EC50: > 100 µM
Measles
  EC50: > 100 µM
CHIK Virus
  EC50: > 100 µg/mL
VEEV
  EC50: > 100 µg/mL
Dengue Virus
  EC50: > 100 µg/mL
Influenza B
  EC50: > 100 µM
Influenza A H1N1
  EC50: > 100 µM
Tacaribe Virus
  EC50: > 100 µg/mL
RSV
  EC50: > 100 µM
RVFV
  EC50: > 100 µg/mL
West Nile Virus
  EC50: > 100 µg/mL
Influenza A H3N2
  EC50: > 100 µM

## CN(C)c1ccn([C@@H]2O[C@H](CO)[C@H](O)C2F)c(=O)n1 (stereo partly shown) [EFVX-01854]
[7]
  EC50: > 100 µM
SARS
  EC50: > 100 µM
Measles
  EC50: > 100 µM
CHIK Virus
  EC50: > 100 µg/mL
VEEV
  EC50: > 100 µg/mL
Dengue Virus
  EC50: > 100 µg/mL
Influenza B
  EC50: > 100 µM
Influenza A H1N1
  EC50: > 100 µM
Tacaribe Virus
  EC50: > 100 µg/mL
RSV
  EC50: > 100 µM
RVFV
  EC50: > 100 µg/mL
West Nile Virus
  EC50: > 100 µg/mL
Influenza A H3N2
  EC50: > 100 µM

## Cc1cn([C@@H]2O[C@H](CO)[C@H](O)C2F)c(=O)nc1N (stereo partly shown) [EFVX-01855]
[7]
  EC50: > 100 µM
SARS
  EC50: > 100 µM
Measles
  EC50: > 100 µM
CHIK Virus
  EC50: > 100 µg/mL
VEEV
  EC50: > 100 µg/mL
Dengue Virus
  EC50: > 100 µg/mL
Influenza B
  EC50: > 100 µM
Influenza A H1N1
  EC50: > 100 µM
Tacaribe Virus
  EC50: > 100 µg/mL
RSV
  EC50: > 100 µM
RVFV
  EC50: > 100 µg/mL
West Nile Virus
  EC50: > 100 µg/mL
Influenza A H3N2
  EC50: > 100 µM

## Nc1nc(=O)n([C@@H]2O[C@H](CO)[C@H](O)C2F)cc1CO (stereo partly shown) [EFVX-01856]
[7]
  EC50: > 100 µM
SARS
  EC50: > 100 µM
Measles
  EC50: > 100 µM
CHIK Virus
  EC50: > 100 µg/mL
VEEV
  EC50: > 100 µg/mL
Dengue Virus
  EC50: > 100 µg/mL
Influenza B
  EC50: > 100 µM
Influenza A H1N1
  EC50: > 100 µM
Tacaribe Virus
  EC50: > 100 µg/mL
RSV
  EC50: > 100 µM
RVFV
  EC50: > 100 µg/mL
West Nile Virus
  EC50: > 100 µg/mL
Influenza A H3N2
  EC50: > 100 µM

## Nc1ccn([C@@H]2O[C@H](CO)[C@H](O)C2F)c(=S)n1 (stereo partly shown) [EFVX-01857]
[7]
  EC50: > 100 µM
SARS
  EC50: > 87 µM
Measles
  EC50: > 100 µM
CHIK Virus
  EC50: > 100 µg/mL
VEEV
  EC50: > 100 µg/mL
Dengue Virus
  EC50: > 100 µg/mL
Influenza B
  EC50: > 100 µM
Influenza A H1N1
  EC50: > 100 µM
Tacaribe Virus
  EC50: > 100 µg/mL
RSV
  EC50: > 100 µM
RVFV
  EC50: > 100 µg/mL
West Nile Virus
  EC50: > 100 µg/mL
Influenza A H3N2
  EC50: > 100 µM

## CC(C)OC(=O)[C@H](C)N[P@](=O)(OC[C@H]1O[C@@H](n2ccc(=O)[nH]c2=S)[C@](C)(O)C1O)Oc1ccccc1 (stereo partly shown) [drawing 371]
HepG2
  CC50: > 400 µM
CEM
  CC50: > 400 µM
Huh-7
  CC50: 252 µM

## CC(C)OC(=O)[C@H](C)N[P@](=O)(OC[C@H]1O[C@@H](n2ccc(=O)[nH]c2=O)[C@](C)(F)C1O)Oc1ccccc1 (stereo partly shown) [drawing 373]
HepG2
  CC50: 365 µM
CEM
  CC50: > 400 µM
Huh-7
  CC50: 279 µM

## CC(C)OC(=O)[C@H](C)NP(=O)(OC[C@H]1O[C@@H](n2ccc(=O)[nH]c2=S)[C@](C)(O)C1O)Oc1ccccc1 (stereo partly shown) [drawing 383]
GT1b replicon cells
  CC50: > 10 µM

## CC(C)OC(=O)[C@H](C)N[P@](=O)(OC[C@H]1O[C@@H](n2ccc(=O)[nH]c2=S)[C@](C)(O)C1O)Oc1ccccc1 (stereo partly shown) [drawing 384]
GT1b replicon cells
  CC50: > 10 µM

## CC(C)OC(=O)[C@H](C)N[P@](=O)(OC[C@H]1O[C@@H](n2ccc(=O)[nH]c2=O)[C@](C)(F)C1O)Oc1ccccc1 (stereo partly shown) [drawing 385]
GT1b replicon cells
  CC50: > 2 µM
